Test system: gamma secretase cleavage of NotchδE (constitutively active rat Notch1 construct ZEDN1)
Assay: Notch signaling reporter gene assay (4xwtCBF1 Luciferase co-transfected with NotchδE) for selective inhibitors of gamma secretase
Type: cell-based
Settings: assay not given, it follows the Notch signaling assay section
Source text: Due to the importance of Notch signaling in cell fate determination, and tissue differentiation during both development and in the adult, inhibition of Notch signaling by gamma secretase inhibitors is postulated to be a limiting factor in their therapeutic utility. […] Lindsell, O. Bogler, D. Hayward and G. Weinmaster (1996). “Notch signaling inhibits muscle cell differentiation through a CBF1-independent pathway.” Development 122(12): 3765-73 in combination with the CBF1 repressible Luciferase reporter gene 4xwtCBF1Luc (Hsieh, J. J., T. Henkel, P. Salmon, E. Robey, M. G. Peterson and S. D. Hayward (1996). “Truncated mammalian Notch1 activates CBF1/RBPJk-repressed genes by a mechanism resembling that of Epstein-Barr virus EBNA2. ” Mol Cell Biol 16(3): 952-9).
When 4xwtCBF1 Luciferase is co-transfected with NotchδE (ZEDN1), gamma-secretase cleavage of NotchδE releases the Notch intracellular domain (NICD), which translocates to the nucleus and de-represses CBF1 mediated transcriptional repression, leading to transcription of the Luciferase reporter gene. Luciferase activity is easily assayed in cell extracts using commercially available kits. The activity of the reporter gene is directly correlated with gamma secretase cleavage of NotchδE, and as such, a reduction in Luciferase activity provides a convenient measure of inhibition of gamma secretase cleavage of NotchδE.

IC50	SMILES
1000 to 10000 nM	O=C(NCc1ccccc1)C1Cc2ccccc2N1S(=O)(=O)c1ccc(Cl)cc1 (stereo not shown) [Compound 12, 1-(4-Chloro-benzenesulfonyl)-2,3-dihydro-1H-indole-2-carboxylic acid benzylamide]
1000 to 10000 nM	CC1CCC(C)N1S(=O)(=O)c1ccc(Cl)cc1 (stereo not shown) [Compound 124, 1-(4-Chloro-benzenesulfonyl)-2,5-dimethyl-pyrrolidine]
> 10000 nM	O=S(=O)(c1ccc(Cl)cc1)N1CCC(Br)CC1 [Compound 56, 4-Bromo-1-(4-chloro-benzenesulfonyl)-piperidine]
> 10000 nM	CCOC(=O)C1CCCN(S(=O)(=O)c2ccc(Cl)cc2)C1 (stereo not shown) [Compound 65, 1-(4-Chloro-benzenesulfonyl)-piperidine-3-carboxylic acid ethyl ester]
1000 to 10000 nM	CC1CCCN(S(=O)(=O)c2ccc(Cl)cc2)C1 (stereo not shown) [Compound 54, 1-(4-Chloro-benzenesulfonyl)-3-methyl-piperidine]
100 to 1000 nM	CC1CCCC(C)N1S(=O)(=O)c1ccc(Cl)cc1 (stereo not shown) [Compound 47, 1-(4-Chloro-benzenesulfonyl)-2,6-dimethyl-piperidine]
1000 to 10000 nM	CC1CC(C)CN(S(=O)(=O)c2ccc(Cl)cc2)C1 (stereo not shown) [Compound 51, 1-(4-Chloro-benzenesulfonyl)-3,5-dimethyl-piperidine]
> 10000 nM	O=S(=O)(c1ccc(Cl)cc1)N1CCCN2CCCN=C21 [Compound 138, 1-(4-Chloro-benzenesulfonyl)-1,3,4,6,7,8-hexahydro-2H-pyrimido[1,2-a]pyrimidine]
1000 to 10000 nM	CC1CCCCN1S(=O)(=O)c1ccc(Cl)cc1 (stereo not shown) [Compound 48, 1-(4-Chloro-benzenesulfonyl)-2-methyl-piperidine]
1000 to 10000 nM	O=S(=O)(c1ccc(Cl)cc1)N1CCCCCC1 [Compound 43, 1-(4-Chloro-benzenesulfonyl)-azepane]
100 to 1000 nM	CCC1CCCCN1S(=O)(=O)c1ccc(Cl)cc1 (stereo not shown) [Compound 46, 1-(4-Chloro-benzenesulfonyl)-2-ethyl-piperidine]
1000 to 10000 nM	O=S(=O)(c1ccc(Cl)cc1)N1CCCC2CCCCC21 (stereo not shown) [Compound 9, 1-(4-Chloro-benzenesulfonyl)-decahydro-quinoline]
> 10000 nM	CC1(c2ccccc2)CCCN(S(=O)(=O)c2ccc(Cl)cc2)C1 (stereo not shown) [Compound 74, 1-(4-Chloro-benzenesulfonyl)-3-methyl-3-phenyl-piperidine]
1000 to 10000 nM	O=C(Nc1ccccc1)C1Cc2ccccc2N1S(=O)(=O)c1ccc(Cl)cc1 (stereo not shown) [Compound 2, 1-(4-Chloro-benzenesulfonyl)-2,3-dihydro-1H-indole-2-carboxylic acid phenylamide]
100 to 1000 nM	C[C@@H]1CCC[C@H](C)N1S(=O)(=O)c1ccc(Cl)cc1 [Compound 45, (2R,6S)-1-[(4-chlorophenyl)sulfonyl]-2,6-dimethylpiperidine]
1000 to 10000 nM	CC1CCc2cc(F)ccc2N1S(=O)(=O)c1ccc(Cl)cc1 (stereo not shown) [Compound 13, 1-(4-Chloro-benzenesulfonyl)-6-fluoro-2-methyl-1,2,3,4-tetrahydro-quinoline]
1000 to 10000 nM	CC1C=CC(C)N1S(=O)(=O)c1ccc(Cl)cc1 (stereo not shown) [Compound 149, 1-(4-Chloro-benzenesulfonyl)-2,5-dimethyl-2,5-dihydro-1H-pyrrole]
> 10000 nM	CCCCNC(=O)[C@H]1CSC(c2ccc(OC)c(OC)c2)N1S(=O)(=O)c1ccc(Cl)cc1 (stereo partly drawn) [Compound 139, (4S)-N-butyl-3-[(4-chlorophenyl)sulfonyl]-2-(3,4-dimethoxyphenyl)-1,3-thiazolidine-4-carboxamide]

SMILES	IC50
O=S(=O)(c1ccc(Cl)cc1)N1CCCCC1c1cccnc1 (stereo not shown) [Compound 1, 1-(4-Chloro-benzenesulfonyl)-1,2,3,4,5,6-hexahydro-[2,3′]bipyridinyl]	1000 to 10000 nM
